1 compound from patent US20240408100A1, “TREATMENT METHODS FOR SUBJECTS HAVING CANCER WITH A DYSREGULATED MAPK AND/OR PI3K PATHWAY” (TAIHO PHARMACEUTICAL CO., LTD., priority 2021, published 2024) can be followed below.

One data set has as its system NF1 mutant cell lines. The data set can be described thus: growth inhibition assay, summary over the panel. The conditions noted are these: Homo sapiens; NF1 mutant cell lines except for MDA-MB-231 cells; read-out: IC50 value. Format: cell-based. The source says: (§1) In order to investigate the growth inhibitory effect of Compound (1) in NF1 mutant cancer cell lines, the IC50 values of growth inhibition assay were obtained and compared then in Table 2.
(§2) In this experiment, to compare the growth inhibitory effect of Compound (1) with those of MAPK and PI3K signaling inhibitors, the IC50 values of trametinib (as a MEK inhibitor), and Alpelisib (as a PI3K inhibitor) were obtained and compared.

The next data set relates to MDA-MB-175VII. Put plainly: growth inhibition assay, NF1 mutant cell line. Format: cell-based. Particulars: Homo sapiens, ER+ breast, NF1 p.1679Dfs*21.
Excerpt: as §1, §2

For a further data set, the system named is HCC202. Put plainly: growth inhibition assay, NF1 mutant cell line. Particulars: HCC202, HER2+ breast, NF1 p.X465_splice. Format: cell-based.
Excerpt: as §1, §2

The next data set concerns H1838. Put plainly: growth inhibition assay, NF1 mutant cell line. Particulars: Homo sapiens, NCI-H1838; H1838, lung, NF1 p.N184Qfs*17. Format: cell-based.
Excerpt: as §1, §2

For a further data set, the system named is HCT116. Put plainly: growth inhibition assay, NF1 mutant cell line. Format: cell-based. The conditions noted are these: Homo sapiens, HCT-116; HCT116, colon, NF1 p.P678Rfs*10, p.P388T.
Excerpt: as §1, §2

Data set [1] deals with cancer cell lines derived from various human cancer origins. The data set can be described thus: cell growth inhibition assay, cell panel, CellTiter Glo 2.0. Format: cell-based. The conditions noted are these: 72 hour, FIG. 4A. Here is the method: Cell growth inhibition assay was conducted according to 72 hour-standard protocol by CellTiter Glo 2.0 Assay.
For orientation: In ATP-based viability assays light output follows the ATP content of the culture.

In the next data set the test system is PTEN-mutated HEC-6 cells. Put plainly: dose-dependent apoptosis induction. Format: cell-based, human. Particulars: HEC-6, 48 hour, compared to control.
The subject of data set [2] is LU65 human lung tumor xenografts. The data set can be described thus: antitumor effect in mice with LU65 xenograft tumors.
Protocol: The tumor volumes and body weights of animals were recorded.
Data set [3] relates to T47D cells (control and NF1 knockdown). The data set can be described thus: immunoblotting of target inhibition and apoptosis induction. Format: cell-based. Here is the method:
To investigate the mechanism of action of Compound (1) in inhibiting the growth of NF1 knockdown breast cancer cells, Compound (1), trametinib, Alpelisib, and fulvestrant were exposed to NF1-knockdown MCF7 and T47D cells at indicated final concentration for 24 hours. NF1, pPRAS40 Thr246, pYB1 Ser102, pS6RP Ser235/236, ERα, and cleaved PARP were detected by immunoblotting.

As usually defined, the IC50 is the concentration needed to halve the response being measured. `CC(C)(C)NCCNc1ccc(-c2nnc(C(F)(F)F)o2)nc1C1CCN(c2ncnc3c2C(C)(C)C(=O)N3)CC1` [Compound (1), 4-(4-(3-((2-(tert-butylamino)ethyl)amino)-6-(5-(trifluoromethyl)-1,3,4-oxadiazol-2-yl)pyridin-2-yl)piperidin-1-yl)-5,5-dimethyl-5H-pyrolo[2,3-d]pyrimidin-6(7H)-one]: the IC50 in the data set with NF1 mutant cell lines was under 1000 nM; in the data set with MDA-MB-175VII it was 70 nM; in the data set with HCC202, 157 nM; with H1838, 344 nM; in the data set with HCT116 it was 355 nM. In addition, in data set [1], the “growth inhibition in cancer cell panel” value is given as “potent growth inhibition”. The “levels of cleaved caspase-3 and cleaved PARP” value in the data set with PTEN-mutated HEC-6 cells is “increased cleaved caspase-3 and cleaved PARP in a concentration dependent manner”. In data set [2] (80 mg/kg/day), the Number of deaths is reported as 0. Moreover, the “T/C ratio (%)” value in data set [2] (80 mg/kg/day, Day 13) is recorded as 75%. Also, the “Tumor volume (mm^3) Day 13 Mean ± SE” value in [2] (80 mg/kg/day, qd, po) came out at 1724.3 ± 91.1 mm^3. Besides, in data set [2] (throughout the study period), the “tolerability (body weight changes)” value was “well tolerated”. For the same compound, the “apoptosis induction (cleaved PARP signal)” value in data set [3] (T47D NF1 knockdown cells versus control cells) is “remarkably higher level in NF1 knockdown cells than control cells”. Further, in data set [3] (T47D, control and NF1 knockdown, 24 hours, immunoblot), the “signals of pPRAS40, pYB1, and pS6RP (target inhibition)” value is “decreased the signals of pPRAS40, pYB1, and pS6RP in a concentration-dependent manner”.
